Assay results as given in ChEMBL document CHEMBL4017441, “Mitigating the inhibition of human bile salt export pump by drugs: opportunities provided by physicochemical property modulation, in silico modeling, and structural modification” (Drug Metab Dispos, 2012).

Legend:
Bile salt export pump [1] = target: T1, Bile salt export pump (Rattus norvegicus, UniProt O70127); assay: Inhibition of BSEP in Sprague-Dawley rat canalicular membrane vesicles assessed as reduction in ATP-dependent [3H]-taurocholate uptake; assay type: ADME
T1 sequence (O70127 whole entry): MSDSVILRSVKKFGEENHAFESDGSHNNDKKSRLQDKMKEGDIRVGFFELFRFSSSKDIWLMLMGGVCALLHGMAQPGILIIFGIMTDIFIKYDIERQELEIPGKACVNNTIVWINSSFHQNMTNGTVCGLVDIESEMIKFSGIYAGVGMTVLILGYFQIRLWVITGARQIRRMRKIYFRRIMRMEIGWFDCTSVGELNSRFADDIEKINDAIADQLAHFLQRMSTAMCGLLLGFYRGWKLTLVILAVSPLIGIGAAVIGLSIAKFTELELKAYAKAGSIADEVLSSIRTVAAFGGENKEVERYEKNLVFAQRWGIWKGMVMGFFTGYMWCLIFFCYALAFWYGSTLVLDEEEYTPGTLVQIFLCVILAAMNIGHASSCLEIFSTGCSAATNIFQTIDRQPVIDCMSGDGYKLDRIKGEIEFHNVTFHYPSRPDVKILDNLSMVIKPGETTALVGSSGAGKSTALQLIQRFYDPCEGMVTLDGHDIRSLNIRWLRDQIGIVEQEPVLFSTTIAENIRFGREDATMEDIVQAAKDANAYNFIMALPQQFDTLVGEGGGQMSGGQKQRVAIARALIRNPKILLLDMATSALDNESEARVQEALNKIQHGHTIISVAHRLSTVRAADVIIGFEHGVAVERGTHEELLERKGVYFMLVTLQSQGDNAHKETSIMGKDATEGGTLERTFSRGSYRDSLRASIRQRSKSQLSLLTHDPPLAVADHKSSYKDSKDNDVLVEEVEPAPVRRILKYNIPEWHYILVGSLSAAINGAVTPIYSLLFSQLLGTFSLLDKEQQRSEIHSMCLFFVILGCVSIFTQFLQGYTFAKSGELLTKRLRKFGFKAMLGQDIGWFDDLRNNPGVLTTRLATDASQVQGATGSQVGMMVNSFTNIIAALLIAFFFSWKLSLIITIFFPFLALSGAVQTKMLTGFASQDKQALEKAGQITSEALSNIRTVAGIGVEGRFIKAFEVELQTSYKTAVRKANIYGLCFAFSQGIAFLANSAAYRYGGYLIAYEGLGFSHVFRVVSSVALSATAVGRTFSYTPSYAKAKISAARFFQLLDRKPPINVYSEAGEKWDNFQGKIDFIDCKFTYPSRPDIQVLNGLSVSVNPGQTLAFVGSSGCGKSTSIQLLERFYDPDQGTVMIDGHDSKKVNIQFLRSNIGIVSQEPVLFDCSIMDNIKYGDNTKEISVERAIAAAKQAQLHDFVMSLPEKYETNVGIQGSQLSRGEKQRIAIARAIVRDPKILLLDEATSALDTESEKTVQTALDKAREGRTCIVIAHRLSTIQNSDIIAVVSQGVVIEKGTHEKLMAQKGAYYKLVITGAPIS

Bile salt export pump [2] = target: Bile salt export pump (Homo sapiens, UniProt O95342); assay type: ADME

| Compound | Ki (Bile salt export pump [1]) [µM] | IC50 (Bile salt export pump [2]) [µM] |
| --- | --- | --- |
| COc1ccc(CCN(C)CCCC(C#N)(c2ccc(OC)c(OC)c2)C(C)C)cc1OC (configuration not stated) | 92.5 |  |
| Cc1ccc(S(=O)(=O)NC(=O)NN2CCCCCC2)cc1 [TOLAZAMIDE] |  | 286 |
| Cc1ccc(C(=O)c2cc(O)c(O)c([N+](=O)[O-])c2)cc1 [TOLCAPONE] |  | < 33.9 |
| Cc1cccc(N(C)C(=S)Oc2ccc3ccccc3c2)c1 [TOLNAFTATE] |  | < 10.3 |
| COc1ccc2c(C(=S)N(C)CC(=O)O)cccc2c1C(F)(F)F [TOLRESTAT] |  | 185 |
| CCCc1c(OCCCCc2nnn[nH]2)ccc(C(C)=O)c1O [TOMELUKAST] |  | < 10.7 |
| CC1(C)O[C@@H]2[C@@H](CO[C@@]3(COS(N)(=O)=O)OC(C)(C)O[C@@H]23)O1 [TOPIRAMATE] |  | > 1000 |
| CCOCn1cnc2c1c(=O)n(CCCCC(C)(C)O)c(=O)n2C [TORBAFYLLINE] |  | 305 |
| Cc1cccc(Nc2ccncc2S(=O)(=O)NC(=O)NC(C)C)c1 [TORSEMIDE] |  | 131 |
| N[C@@H]1C[C@H]1c1ccccc1.N[C@H]1C[C@@H]1c1ccccc1 [TRANYLCYPROMINE] |  | > 1000 |
| CC1=C(/C=C/C(C)=C/C=C/C(C)=C/C(=O)O)C(C)(C)CCC1 [TRETINOIN] |  | < 10 |
| C[C@]12C=CC(=O)C=C1CC[C@H]1[C@@H]3C[C@@H](O)[C@](O)(C(=O)CO)[C@@]3(C)C[C@H](O)[C@@]12F [TRIAMCINOLONE] |  | 236 |
| O=C(CCCN1CCC(O)(c2cccc(C(F)(F)F)c2)CC1)c1ccc(F)cc1 [TRIFLUPERIDOL] |  | 19.7 |
| CN(C)CCCN1c2ccccc2Sc2ccc(C(F)(F)F)cc21 [TRIFLUPROMAZINE] |  | 39 |
| O=c1[nH]c(=O)n([C@H]2C[C@H](O)[C@@H](CO)O2)cc1C(F)(F)F [TRIFLURIDINE] |  | > 1000 |
| CCC(COC(=O)c1cc(OC)c(OC)c(OC)c1)(c1ccccc1)N(C)C (configuration not stated) [TRIMEBUTINE] |  | < 10 |
| COc1cc(Cc2cnc(N)nc2N)cc(OC)c1OC [TRIMETHOPRIM] |  | 833 |
| COc1cc(C(=O)N2CCOCC2)cc(OC)c1OC [TRIMETOZINE] |  | > 1000 |
| Cc1cc2cc3c(C)cc(=O)oc3c(C)c2o1 [TRIOXSALEN] |  | > 525 |

| Compound | Ki (Bile salt export pump [1]) [µM] | IC50 (Bile salt export pump [2]) [µM] |
| --- | --- | --- |
| Cc1ccc(/C(=C\CN2CCCC2)c2ccccn2)cc1 [TRIPROLIDINE] |  | 291 |
| Cc1c(C)c2c(c(C)c1O)CCC(C)(COc1ccc(CC3SC(=O)NC3=O)cc1)O2 (configuration not stated) [TROGLITAZONE] |  | 6.9 |
| CCN(Cc1ccncc1)C(=O)C(CO)c1ccccc1 (configuration not stated) [TROPICAMIDE] |  | 151 |
| CC(C)(C)NCC(O)c1ccccc1Cl (configuration not stated) [TULOBUTEROL] |  | > 1000 |
| C[C@H](CCC(=O)O)[C@H]1CC[C@H]2[C@@H]3[C@@H](O)C[C@@H]4C[C@H](O)CC[C@]4(C)[C@H]3CC[C@]12C [URSODIOL] |  | < 10 |
| CCOC(=O)[C@H](CCc1ccccc1)N[C@@H](C)C(=O)N1N=C(C(C)(C)C)S[C@H]1C(=O)O [UTIBAPRIL] |  | < 13.5 |
| Clc1ccc(Nc2nnc(Cc3ccncc3)c3ccccc23)cc1 [VATALANIB] |  | < 10 |
| COc1ccc(C(CN(C)C)C2(O)CCCCC2)cc1 (configuration not stated) [VENLAFAXINE] |  | > 1000 |
| CC(=O)CC(c1ccccc1)c1c(O)c2ccccc2oc1=O (configuration not stated) [WARFARIN] |  | 115 |
| FC(F)(F)c1cccc(C2=CCN(CCc3ccc4ccccc4c3)CC2)c1 [XALIPRODEN] |  | 117 |
| Cc1cccc(C)c1N=C1NCCCS1 [XYLAZINE] |  | > 1000 |
| Cc1cc(C(C)(C)C)cc(C)c1CC1=NCCN1 [XYLOMETAZOLINE] |  | > 796 |
| COC(=O)[C@@H]1[C@H]2C[C@H]3c4[nH]c5ccccc5c4CCN3C[C@@H]2CC[C@@H]1O [YOHIMBINE] |  | 254 |
| C[C@](O)(C(=O)Nc1ccc(C(=O)c2ccccc2)cc1)C(F)(F)F [ZD-6169] |  | 21.4 |
| CC(c1cc2ccccc2s1)N(O)C(N)=O (configuration not stated) [ZILEUTON] |  | > 751 |
| BISMUTH SUBSALICYLATE |  | > 1000 |
| IVERMECTIN |  | < 10 |
| PHENYLMERCURIC ACETATE |  | < 10 |
